We go through five compounds from US9605013B2, “Derivatives of hemin with antibacterial and antiviral activity” (OBSCHESTVO S OGRANICHENNOI OTVETSTVENNOSTIYU …, priority 2011, dated 2017).

Assay type in all cases: cell-based
Assay [1] deals with Micrococcus luteus BKM Ac-2230. The assay is described as follows: Antibacterial activity, serial dilutions in liquid MH medium. On the procedure:
(§1) The antibacterial activity of the compounds was determined against strains of gram-positive bacteria such as Staphylococcus aureus 209P, Enterococcus faecalis BKM B-871, Micrococcus luteus BKM Ac-2230, Bacillus subtilis BKM B-501, and gram-negative bacteria such as Pseudomonas aeruginosa PAO1 and Escherichia coli KM MGU C-600. BKM strains were acquired from the All-Russia Collection of Microorganisms at the Institute for Biochemistry and Physiology of Microorganisms, Russian Academy of Sciences. Strain Staphylococcus aureus 209P was acquired from the Collection of Microorganisms at the Department of microbiology of the Faculty of Biology of Lomonosov Moscow State University, and Pseudomonas aeruginosa PAO1 was acquired from the Collection of Microorganisms at the Institute of Bioorganic Chemistry of the Russian Academy of Sciences.
(§2) The main parameters characterizing the antibacterial activity are the minimal inhibitory concentration (MIC) and minimal bactericidal concentration (MBC). […] MBC is the least concentration that causes the death of all cells.
(§3) MIC was quantified by inhibiting culture growth in a liquid medium with serial dilutions of compounds using a modified procedure [Amsterdam, D., 1966. “Susceptibility testing of antimicrobials in liquid media,” pp. 52-111. In Loman, V., ed. Antibiotics in laboratory medicine, 4th ed. Williams and Wilkins, Baltimore].
(§4) Bacteria were cultured and tested on an MH liquid medium (Mueller-Hinton medium: a dry extract of beef broth, 4 g/L; starch, 1.5 g/L; casein hydrolyzate, 17.5 g/L; Sigma-Fluka Catalog No. 70192) at 37° C., 100% humidity, and under stirring. Cultures (within 4 to 7 passages after thawing) in the exponential growth phase were used for tests.
(§5) All tested compounds absorb light at 595 nm, a wavelength used for evaluating bacterial culture growth. Therefore, a correction for absorption was applied in estimating the optical density of bacterial suspensions for each compound with account for its concentration in the well. Bacterial growth inhibition (GI) as percentage after 20 hours of incubating cells with compounds was derived from the optical density (A) measured in every well at a wavelength of 595 nm using the equation: GIi=[(Act−Ac0)−(Ait−Ai0)]×100/(Act−Ac0), (1) wherein the subscripts have the following meanings: i denotes the well number, c denotes a control well with bacteria whereto the tested compound is not inserted, 0 refers to the measurement taken immediately once the tested compound was inserted to the well, and t refers to the measurement taken 20 hours after the compound was inserted.
(§6) The protocol for the determination of experimental antibacterial activity of the tested compounds was as follows. A cryovial with the test strain culture in a medium with 7% DMSO stored in liquid nitrogen, was rapidly defrosted, and 1.5 mL of the fresh MH medium was inoculated with 100 μL of the cell suspension. Cells were grown for one day at 37° C. and stirred on an orbital shaker at 150 rpm. The morphologic features of the strain and the absence of contamination with foreign bacteria were verified by: (a) inoculation on an agarized (15 g/L agar) MH medium and observation of the shape and color of the grown colonies and (b) examination of characteristic morphologic features under a microscope (Mikmed-2, LOMO, Russia) equipped with a 40× objective lens. Further, the bacteria were cultured in 1 mL of the liquid MH medium at 37° C. under stirring. The cells were reseeded every day. Cell cultures were used in tests starting with 3rd reseeding and ending with 6th one.
(§7) For testing, 5 μL of a bacterial suspension in the stationary growth phase was transferred to 1 mL of a sterile MH medium and incubated until the exponential growth phase was attained (3 to 5 h, 37° C., stirring at 150 rpm). To estimate the microorganism concentration, the optical density (A) of the resulting bacterial culture was measured at a wavelength of 595 nm. […]

For assay [2], the system named is Bacillus subtilis BKM B-501. The assay is described as above. The note with it: MH medium, 20 h, 37° C., 100% growth inhibition. The protocol:
as §1, §2, §3, §4, §5, §6, §7

Assay [3] concerns Staphylococcus aureus No. 5 (MRSA). The assay is described as follows: Antibacterial specific activity, twofold dilutions, visual growth evaluation. The note with it: St. aur No. 5 MRSA; 36° C., 24 hours. On the procedure: (§8) The specific activity of compounds also was determined against bacteria strains such as Staphylococcus aureus No. 25923 ATCC (American Type Culture Collection); Staphylococcus aureus No. 100 KC; Staphylococcus epidermidis No. 533; Enterococcus faecalis No. 559; Enterococcus faecium No. 569, Staphylococcus aureus No. 5 (MRSA), Staphylococcus aureus No. 3797 (MRSA). Staphylococcus aureus was cultured on the Trypticase Soy Agar (BBL) commercially available dry medium. Enterococcus faecalis was cultured on the Columbia Agar (BBL) commercially available dry medium. These media were sterilized by autoclaving at 121° C. for 15 min. Bacterial inoculum was constant and was 5×10^5 CFU/ml (10^5 CFU/0.2 ml). For water-soluble compounds, wells from 2nd through 8th were added with the solvent (water) in an amount of 15 μL per well, then the 1st well was added with 30 μL of the stock solution of the tested compound in […] with a concentration of […], and the concentration was adjusted to 0.007×10^3 M by serial twofold dilutions. A 10-μL portion was taken from every well, and 190 μL of the bacterial culture (10^5 CFU) was added per well. For DMSO-soluble compounds, wells from 2nd through 8th were added with the solvent (DMSO) in an amount of 10 μL per well, then the 1st well was added with 20 μL of the stock solution of the tested compound in […] with a concentration of […], and the concentration was adjusted to 0.039×10^3 M by serial twofold dilutions. A 2-μL portion was taken from each well, and 198 μL of the bacterial culture (10^5 CFU) was added per well.
(§9) The control comprised wells free of tested compounds (culture growth control). In addition, purity control of nutritional media and solvents was used. Plates were incubated in a thermostat at 36° C. for 24 hours.
(§10) Culture growth was evaluated visually by comparison of how microorganisms grew in the presence of tested compounds and in the absence of them. MIC was set equal to the last dilution of a tested agent which suppressed bacterial culture growth.

For assay [4], the system named is Staphylococcus aureus No. 3797 (MRSA). The assay is described as above. Particulars: St. aur No. 3797 MRSA; 36° C., 24 hours. On the procedure:
as §8, §9, §10

The test system of assay [5] is Vancomycin-resistant Enterococcus faecium 569. The description is as above. Particulars: Vancomycin-resistant E. faecium 569; 36° C., 24 hours. The protocol: as §8, §9, §10
Assay [6] relates to Staphylococcus epidermidis No. 533. Described as above. The note with it: S. epidermis 533; 36° C., 24 hours. The protocol:
as §8, §9, §10

The test system of assay [7] is Enterococcus faecalis No. 559. The assay is described as above. Particulars: E. faecalis 559; 36° C., 24 hours. The protocol: as §8, §9, §10
Assay [8] concerns Staphylococcus aureus No. 25923 ATCC. The assay is described as above. Particulars: S. aureus 25923; 36° C., 24 hours. On the procedure:
as §8, §9, §10

In a further assay the test system is Escherichia coli 4300. Described as above. The note with it: E. coli 4300; 36° C., 24 hours. On the procedure: [Worded in the source for another organism; this organism is reported under the same test.] as §8, §9, §10
The subject of assay [9] is Staphylococcus aureus No. 100 KC. The description is as above. The note with it: S. aureus 100 KC; 36° C., 24 hours. On the procedure:
as §8, §9, §10

Assay [10] has as its system Herpes Simplex Virus type 1 strain EC. In words: Antiviral activity, virus cytopathogenic action in Vero cells. Also on record: key: 0: CPA (cytopathogenic action) is not detected; 1: up to 25% virus-infected monolayer; from 25% to 50%; 3: from 50% to 75%; 4: from 75% to 100%. Particulars: 48 hours. On the procedure: (§11) […] used in the study were used Herpes Simplex Virus type 1 (the Collection of Microorganisms at the Scientific Research Institute of Virology, strain EC), Herpes Simplex Virus type 2 strain G (No. VR-734 ATCC), and human cytomegalovirus strain AD169 (No. VR-538 ATCC). Herpes Simplex viruses type 1 and type 2 were cultured in Vero cells. The cells were incubated in MEM Eagle growth medium (MEM, BioloT, St-Petersburg, 1.3.3) supplemented with 10% fetal bovine serum (BioloT, St-Petersburg, 1.3.12) in Sanyo MCO-15AC gas-flow thermostat (37° C., 5% CO2) (Tokyo, Japan). A seed dose was 2×10^5 cells/ml in the starting inoculum or 2×10^4 cells/well. Herpes Simplex viruses were cultured under the same conditions in the MEM medium without serum (maintenance medium). Starting viral titers were 10^7 TCID50/ml.
(§12) For DMSO-soluble preparations, stock solutions were prepared in a concentration of 10 mM in DMSO. For water-soluble preparations, a stock solution prepared had the same concentration in the MEM medium (Minimal Essential Medium) for cell cultures. To control cytotoxicity (see below), the stock solution was diluted in the medium to a concentration of 100 μM and ten-fold serial dilutions of the preparations were made in the MEM medium (for DMSO-soluble compounds—in the MEM medium comprising 3% DMSO). The following concentrations of the preparations were used in the study of […]: if toxicity was not found, the concentrations of 100 μM preparations were 100, 10 and 1 μM; if toxicity was detected, the concentrations of 100 μM preparations were 10, 1, and 0.1 μM. Acyclovir (10 μg/ml) was used for Herpes Simplex viruses of both types as a reference preparation to control the viral model validity.
(§13) To study antiviral activity, plate wells with a cell monolayer were added with the preparations in an amount of 0.1 ml/well. To compensate a reduction in the concentration of the preparations, which takes place in the following addition of viruses, twofold concentrations of compounds (i.e. 200, 20 and 2 or 20, 2 and 0.2 μM for […] concentrations of 100 μM preparations, respectively) were used, incubated for an hour and then were infected with the examined 0.1 ml/well viruses in doses 1, 10 and 100 TCID50 (50% tissue infectious dose).
(§14) The virus-specific cytogenic action was manifested in an increase in the size of cells, their rounding, and detachment from a substrate. These morphological characteristics served as their marked difference from the cells subjected to a toxic action of high concentrations of the examined preparations. The latter acquired spindle-like shape, lost contacts with neighboring cells of the monolayer, and their boundaries became more distinct.
(§15) Intensity of the virus-specific changes in the cells were semi-quantified using a 4-score system: 0—CPA (cytopathogenic action) is not detected; 1—up to 25% virus-infected monolayer; 2—from 25% to 50%; 3—from 50% to 75%; and 4—from 75% to 100%. The antiviral activity of a compound was evaluated according to their ability to reduce the manifestation of cytopathogenic action in the plate wells compared to the control values. Differences with the control values by 1 score and more were considered to be significant.

In assay [11] the test system is Herpes Simplex Virus type 2 strain G (No. VR-734 ATCC). The assay is described as above. The arrangement: key: 0: CPA (cytopathogenic action) is not detected; 1: up to 25% virus-infected monolayer; from 25% to 50%; 3: from 50% to 75%; 4: from 75% to 100%. The note with it: 48 hours. On the procedure: as §11, §12, §13, §14, §15

For orientation: MIC means the lowest concentration found to suppress growth. One may read the MBC as the smallest concentration meeting the test's criterion for killing. For “6,7-bis-(Methyl Ester N^α—(N^G-Nitro)Arginyl)-Protohemin (IX) [III]”, the MIC came to 1.6 µM in assay [1] (MH medium, 20 h, 37° C., 100% growth inhibition); 12.5 µM in [2]; 25 µM in assay [3]; 25 µM in assay [4]. In assay [1] (no colonies on agarized MH medium), this compound gave an MBC of 6.3 µM.

Regarding “6,7-bis-[(Methyl Ester N^α-L-Arginyl)-L-Seryl]-Protohemin (IX) [XXI]”, the minimal inhibitory concentration (MIC) was 6.25 µM in [5]; 0.78 µM in assay [6]; 1.56 µM in assay [7]; 0.39 µM in assay [8]; 0.65 µM in [3]; >50.0 µM in the assay on Escherichia coli 4300. In addition, the MIC in assay [9] was 0.65 µM; in [4], 1.56 µM.

As for “6,7-bis-[(N^α-L-Seryl)-L-Arginyl]-Protohemin (IX) [XXII]”, the minimal inhibitory concentration (MIC) in assay [5] was 5.2 µM; in assay [6], 1.3 µM; in assay [7], >50.0 µM; in assay [8] it was 1.3 µM; in assay [3], 25 µM; against Escherichia coli 4300, >50.0 µM. In addition, the MIC in assay [9] came out at 0.39 µM; in assay [4], 20.8 µM.

`Nc1nc2c(ncn2COCCO)c(=O)[nH]1` [Acyclovir, reference compound]: the “manifestation of the virus CPA” value in [10] (HSV-1, virus dose 1, 10 μg/ml) is 0^1; in assay [10] (HSV-1, virus dose 10, 10 μg/ml), 0^1; in assay [10] (HSV-1, virus dose 100, 10 μg/ml) it was 0^1; in [11] (HSV-2, virus dose 1, 10 μg/ml), 0^1; in [11] (HSV-2, virus dose 10, 10 μg/ml) it was 0^1; in [11] (HSV-2, virus dose 100, 10 μg/ml), 0^1.

Turning to “6,7-bis-[(Diamide N^α-L-Seryl)-L-glutamyl]-Protohemin (IX) [XII]”, the “manifestation of the virus CPA” value in [11] (HSV-2, virus dose 1, concentration 0.1 μM) is reported as 0.5 scores; in assay [11] (HSV-2, virus dose 1, concentration 1 μM), 0.5 scores; in assay [11] (HSV-2, virus dose 1, concentration 10 μM) it was 0^1; in [11] (HSV-2, virus dose 10, concentration 0.1 μM), 2 (from 25% to 50%); in [11] (HSV-2, virus dose 10, concentration 1 μM) it was 1.5 scores; in assay [11] (HSV-2, virus dose 10, concentration 10 μM), 1^1 (up to 25% virus-infected monolayer). Besides, the “manifestation of the virus CPA” value in [11] (HSV-2, virus dose 100, concentration 0.1 μM) is given as 3 (from 50% to 75%); in assay [11] (HSV-2, virus dose 100, concentration 1 μM), 3 (from 50% to 75%); in assay [11] (HSV-2, virus dose 100, concentration 10 μM), 3 (from 50% to 75%).
